Source: patent publication US20260325533A1, “CDK INHIBITOR COMPOUNDS” (ALEKSIA THERAPEUTICS, INC., priority 2023, published 2026)
Read-outs that look alike come from different tables or passages of the source. Each block holds one compound with its values, some of them ahead of it.

How the values were obtained:
Type in all cases: biochemical
CDK2/CCNE1 = CDK2/CCNE1 (Homo sapiens, UniProt P24941); assay: CDK2 homogeneous time-resolved fluorescence (HTRF) kinase assay; conditions: CDK2/CCNE
Method in brief: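 TR-FRET read-out (665 nm, or 665/615 ratio) of Eu-antibody detection of phospho-4E-BP1 (Thr37/46) ULight peptide. Enzyme 3 nM, ATP 1 mM, peptide 50 nM, 1% DMSO; 60 min reaction at 23 °C after 20 min compound preincubation. IC50 from 11-point half-log titrations, top typically 10 μM.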

CDK1/CCNB1 = CDK1/CCNB1 (Homo sapiens, UniProt P06493); assay: CDK1 homogeneous time-resolved fluorescence (HTRF) kinase assay; conditions: CDK1/CCNB
Chain of CDK1/CCNB1 (P06493 whole entry): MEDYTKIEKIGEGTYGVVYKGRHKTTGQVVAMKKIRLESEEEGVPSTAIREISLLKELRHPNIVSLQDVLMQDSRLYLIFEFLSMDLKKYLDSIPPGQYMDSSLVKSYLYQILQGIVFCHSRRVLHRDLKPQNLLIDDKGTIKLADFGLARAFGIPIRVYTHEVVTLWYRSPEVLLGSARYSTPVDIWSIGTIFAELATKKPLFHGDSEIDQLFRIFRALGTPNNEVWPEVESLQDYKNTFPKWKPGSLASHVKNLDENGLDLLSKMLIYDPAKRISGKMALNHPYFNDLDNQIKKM
Chain of CDK1/CCNB1 (P14635 whole entry partner): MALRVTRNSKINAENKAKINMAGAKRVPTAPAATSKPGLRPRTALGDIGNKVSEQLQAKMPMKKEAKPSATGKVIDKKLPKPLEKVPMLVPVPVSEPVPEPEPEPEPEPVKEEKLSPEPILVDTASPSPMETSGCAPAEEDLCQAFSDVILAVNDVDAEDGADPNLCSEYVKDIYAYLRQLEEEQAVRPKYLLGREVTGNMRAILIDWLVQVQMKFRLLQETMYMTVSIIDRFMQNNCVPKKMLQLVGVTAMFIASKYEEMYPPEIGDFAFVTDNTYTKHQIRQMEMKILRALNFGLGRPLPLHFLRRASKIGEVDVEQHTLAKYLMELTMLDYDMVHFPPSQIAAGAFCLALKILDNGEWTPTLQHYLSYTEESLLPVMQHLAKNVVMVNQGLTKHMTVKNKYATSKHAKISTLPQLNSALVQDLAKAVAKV
Method in brief: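 Read-out: TR-FRET (Eu anti-phospho-4E-BP1 Thr37/46 antibody, 2 nM; 665 nm or 665/615 ratio) after 60 min phosphorylation of 50 nM ULight-peptide by 0.5 nM CDK1/CCNB1 at 1 mM ATP, 23 °C. Compound preincubated 20 min with enzyme; 1% DMSO.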

CDK4/CCND3 = CDK4/CCND3 (Homo sapiens, UniProt P11802); assay: CDK4 homogeneous time-resolved fluorescence (HTRF) kinase assay; conditions: CDK4/CCND
Chain of CDK4/CCND3 (P11802 whole entry): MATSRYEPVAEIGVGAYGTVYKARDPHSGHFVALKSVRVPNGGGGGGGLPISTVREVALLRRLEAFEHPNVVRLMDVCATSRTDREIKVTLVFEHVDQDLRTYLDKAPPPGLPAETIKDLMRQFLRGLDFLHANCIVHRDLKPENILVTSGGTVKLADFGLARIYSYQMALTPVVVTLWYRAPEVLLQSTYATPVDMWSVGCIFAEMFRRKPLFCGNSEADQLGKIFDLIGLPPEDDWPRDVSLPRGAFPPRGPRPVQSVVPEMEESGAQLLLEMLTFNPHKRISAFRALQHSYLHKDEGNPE
Chain of CDK4/CCND3 (P30281 whole entry partner): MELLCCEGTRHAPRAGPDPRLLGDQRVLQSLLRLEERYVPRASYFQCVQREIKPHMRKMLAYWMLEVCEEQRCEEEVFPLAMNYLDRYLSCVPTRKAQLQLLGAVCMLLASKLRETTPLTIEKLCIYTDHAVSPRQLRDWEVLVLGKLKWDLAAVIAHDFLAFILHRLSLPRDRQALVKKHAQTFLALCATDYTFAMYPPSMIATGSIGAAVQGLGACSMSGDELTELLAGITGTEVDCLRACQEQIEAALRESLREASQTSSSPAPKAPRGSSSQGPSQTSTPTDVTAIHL
Method in brief: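 IC50 values were derived from 11-point half-log dilutions, usually starting at 10 μM. Compound was first held for 20 min at 23 °C with 1.5 nM CDK4/CCND3. 1 mM ATP and 50 nM ULight-eIF4E-BP1 (Thr37/46) substrate were then added for 60 min, and the TR-FRET 665 nm signal was measured after EDTA stop and Eu-anti-phospho-4E-BP1 detection.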

CDK6/CCND1 = CDK6/CCND1 (Homo sapiens, UniProt Q00534); assay: CDK6 homogeneous time-resolved fluorescence (HTRF) kinase assay; conditions: CDK6/CCND
Chain of CDK6/CCND1 (Q00534 whole entry): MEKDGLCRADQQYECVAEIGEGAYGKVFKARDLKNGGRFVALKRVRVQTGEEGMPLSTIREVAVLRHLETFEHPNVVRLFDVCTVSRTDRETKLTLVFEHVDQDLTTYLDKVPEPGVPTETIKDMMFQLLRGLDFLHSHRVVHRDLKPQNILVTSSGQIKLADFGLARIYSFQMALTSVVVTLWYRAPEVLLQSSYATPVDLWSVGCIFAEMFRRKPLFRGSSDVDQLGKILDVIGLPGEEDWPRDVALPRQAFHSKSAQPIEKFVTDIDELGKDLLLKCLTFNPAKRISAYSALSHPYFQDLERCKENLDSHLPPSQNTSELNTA
Chain of CDK6/CCND1 (P24385 whole entry partner): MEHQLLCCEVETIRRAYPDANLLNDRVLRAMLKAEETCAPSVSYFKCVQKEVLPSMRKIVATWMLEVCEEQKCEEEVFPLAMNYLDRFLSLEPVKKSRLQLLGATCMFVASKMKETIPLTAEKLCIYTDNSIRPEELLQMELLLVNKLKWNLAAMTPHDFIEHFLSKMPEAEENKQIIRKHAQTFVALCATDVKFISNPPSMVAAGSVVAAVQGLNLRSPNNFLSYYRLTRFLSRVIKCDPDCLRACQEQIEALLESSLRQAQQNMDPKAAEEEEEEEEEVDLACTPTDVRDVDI
Method in brief: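 Recombinant CDK6/CCND1 (1 nM final) was preincubated with compound for 20 min at 23 °C in HEPES buffer with MgCl2, EGTA, DTT and Tween 20. Kinase reaction then ran 60 min at 23 °C with 1 mM ATP and 50 nM ULight-4E-BP1 (Thr37/46) peptide, and was stopped with EDTA.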

[1] = <25 nM, read-out: CDK2/CCNE IC50 <25 nM
[2] = >250 nM marked x, read-out: CDK1/CCNB IC50 >250 nM
[3] = 25-250 nM marked x, read-out: CDK4/CCND IC50 25-250 nM
[4] = >250 nM marked x, read-out: CDK6/CCND IC50 >250 nM
[5] = 25-250 nM marked x, read-out: CDK1/CCNB IC50 25-250 nM
[6] = 25-250 nM marked x, read-out: CDK6/CCND IC50 25-250 nM
[7] = x = IC50 <25 nM, read-out: CDK2/CCNE IC50 (<25 nM)
[8] = x = IC50 25-250 nM, read-out: CDK1/CCNB IC50 (25-250 nM)
[9] = x = IC50 25-250 nM, read-out: CDK4/CCND IC50 (25-250 nM)
[10] = x = IC50 25-250 nM, read-out: CDK6/CCND IC50 (25-250 nM)
[11] = x = IC50 >250 nM, read-out: CDK4/CCND IC50 (>250 nM column)
[12] = x = IC50 >250 nM, read-out: CDK6/CCND IC50 (>250 nM column)
[13] = x = IC50 >250 nM, read-out: CDK1/CCNB IC50 (>250 nM column)

IC50 (CDK2/CCNE1; <25 nM, read-out: CDK2/CCNE IC50, <25 nM): < 0.025 µM | IC50 (CDK1/CCNB1; >250 nM, read-out: CDK1/CCNB IC50 >250 nM): > 0.25 µM | IC50 (CDK4/CCND3; 25-250 nM, read-out: CDK4/CCND IC50, 25-250 nM): 0.025 to 0.25 µM | IC50 (CDK6/CCND1; 25-250 nM, 1 mM ATP, read-out: CDK6/CCND IC50, 25-250 nM): 0.025 to 0.25 µM
SMILES: CCNS(=N)(=O)c1ccc(Nc2cc3c(-c4ccc5c(cnn5CC(O)(C(F)(F)F)C(F)(F)F)c4C)nccc3cn2)cc1 (single isomer, unassigned) [Ex 692, N-ethyl-4-((5-(4-methyl-1-(3,3,3-trifluoro-2-hydroxy-2-(trifluoromethyl)propyl)-1H-indazol-5-yl)-2,6-naphthyridin-3-yl)amino)benzenesulfonimidamide]

IC50 (CDK2/CCNE1; [7]): < 0.025 µM | IC50 (CDK1/CCNB1; [8]): 0.025 to 0.25 µM | IC50 (CDK4/CCND3; [9]): 0.025 to 0.25 µM | IC50 (CDK6/CCND1; [10]): 0.025 to 0.25 µM
SMILES: CC1(O)C(=O)Nc2cc(C#Cc3nccc4cnc(Nc5ccc(S(C)(=O)=O)cc5)cc34)ccc21 (single isomer, unassigned) [Example 347, 3-hydroxy-3-methyl-6-((7-((4-(methylsulfonyl)phenyl)amino)-2,6-naphthyridin-1-yl)ethynyl)indolin-2-one]

IC50 (CDK2/CCNE1; [7]): < 0.025 µM | IC50 (CDK1/CCNB1; [8]): 0.025 to 0.25 µM | IC50 (CDK4/CCND3; [9]): 0.025 to 0.25 µM | IC50 (CDK6/CCND1; [10]): 0.025 to 0.25 µM
SMILES: CC1(CO)C(=O)Nc2cc(C#Cc3nccc4cnc(Nc5ccc(S(C)(=O)=O)cc5)cc34)ccc21 (single isomer, unassigned) [Example 372, 3-(hydroxymethyl)-3-methyl-6-((7-((4-(methylsulfonyl)phenyl)amino)-2,6-naphthyridin-1-yl)ethynyl)indolin-2-one]

IC50 (CDK2/CCNE1; [7]): < 0.025 µM | IC50 (CDK1/CCNB1; [8]): 0.025 to 0.25 µM | IC50 (CDK4/CCND3; [11]): > 0.25 µM | IC50 (CDK6/CCND1; [12]): > 0.25 µM
SMILES: CCC1(C)C(=O)Nc2cc(C#Cc3nccc4cnc(Nc5ccc(S(C)(=O)=O)cc5)cc34)ccc21 (single isomer, unassigned) [Example 388, 3-ethyl-3-methyl-6-((7-((4-(methylsulfonyl)phenyl)amino)-2,6-naphthyridin-1-yl)ethynyl)indolin-2-one]

IC50 (CDK2/CCNE1; [7]): < 0.025 µM | IC50 (CDK1/CCNB1; [8]): 0.025 to 0.25 µM | IC50 (CDK4/CCND3; [9]): 0.025 to 0.25 µM | IC50 (CDK6/CCND1; [10]): 0.025 to 0.25 µM
SMILES: CS(=N)(=O)c1ccc(Nc2cc3c(C#Cc4ccc5oc(=O)[nH]c5c4)nccc3cn2)cc1 (single isomer, unassigned) [Example 483, 5-((7-((4-(S-methylsulfonimidoyl)phenyl)amino)-2,6-naphthyridin-1-yl)ethynyl)benzo[d]oxazol-2(3H)-one]

IC50 (CDK2/CCNE1; x = IC50 25-250 nM, read-out: CDK2/CCNE IC50 (25-250 nM)): 0.025 to 0.25 µM | IC50 (CDK1/CCNB1; [13]): > 0.25 µM | IC50 (CDK4/CCND3; [11]): > 0.25 µM | IC50 (CDK6/CCND1; [12]): > 0.25 µM
SMILES: CS(=N)(=O)c1ccc(Nc2cc3c(C#Cc4ccc(C#N)cc4)nccc3cn2)cc1 (single isomer, unassigned) [Example 511, 4-((7-((4-(S-methylsulfonimidoyl)phenyl)amino)-2,6-naphthyridin-1-yl)ethynyl)benzonitrile]

IC50 (CDK2/CCNE1; [7]): < 0.025 µM | IC50 (CDK1/CCNB1; [13]): > 0.25 µM | IC50 (CDK4/CCND3; [11]): > 0.25 µM | IC50 (CDK6/CCND1; [10]): 0.025 to 0.25 µM
SMILES: Cc1c(-c2nccc3cnc(Nc4ccc(S(C)(=N)=O)cc4)cc23)ccc2nn(C)cc12 (single isomer, unassigned) [Example 545, (4-((5-(2,4-dimethyl-2H-indazol-5-yl)-2,6-naphthyridin-3-yl)amino)phenyl)(imino)(methyl)-λ^6-sulfanone]

Further lines, the compound ahead of its results:

SMILES: CC(C)S(=N)(=O)c1ccc(Nc2cc3c(C#Cc4cc5c(cc4N)C(C)(C)C(=O)N5)nccc3cn2)cc1 (single isomer, unassigned) [Example 270, 5-amino-3,3-dimethyl-6-((7-((4-(propan-2-ylsulfonimidoyl)phenyl)amino)-2,6-naphthyridin-1-yl)ethynyl)indolin-2-one]
IC50 (CDK2/CCNE1; [1]): < 0.025 µM | IC50 (CDK1/CCNB1; [2]): > 0.25 µM | IC50 (CDK4/CCND3; [3]): 0.025 to 0.25 µM | IC50 (CDK6/CCND1; [4]): > 0.25 µM

SMILES: CC(C)S(=N)(=O)c1ccc(Nc2cc3c(C#Cc4ccc5c(c4)NC(=O)C5(C)CCO)nccc3cn2)cc1 (single isomer, unassigned) [Example 271, 3-(2-hydroxyethyl)-3-methyl-6-((7-((4-(propan-2-ylsulfonimidoyl)phenyl)amino)-2,6-naphthyridin-1-yl)ethynyl)indolin-2-one]
IC50 (CDK2/CCNE1; [1]): < 0.025 µM | IC50 (CDK1/CCNB1; [5]): 0.025 to 0.25 µM | IC50 (CDK4/CCND3; [3]): 0.025 to 0.25 µM | IC50 (CDK6/CCND1; [6]): 0.025 to 0.25 µM

SMILES: N=S(=O)(c1ccc(Nc2cc3c(C#Cc4ccc5c(c4)NC(=O)C54CC4)nccc3cn2)c(F)c1)C1COC1 (single isomer, unassigned) [Example 275, 6′-((7-((2-fluoro-4-(oxetane-3-sulfonimidoyl)phenyl)amino)-2,6-naphthyridin-1-yl)ethynyl)spiro[cyclopropane-1,3′-indolin]-2′-one]
IC50 (CDK2/CCNE1; [1]): < 0.025 µM | IC50 (CDK1/CCNB1; [2]): > 0.25 µM | IC50 (CDK4/CCND3; [3]): 0.025 to 0.25 µM | IC50 (CDK6/CCND1; [4]): > 0.25 µM

SMILES: CC(C)S(=N)(=O)c1ccc(Nc2cc3c(C#Cc4ccc5c(c4)NC(=O)C5(C)O)nccc3cn2)cc1 (single isomer, unassigned) [Example 279, 3-hydroxy-3-methyl-6-((7-((4-(propan-2-ylsulfonimidoyl)phenyl)amino)-2,6-naphthyridin-1-yl)ethynyl)indolin-2-one]
IC50 (CDK2/CCNE1; [1]): < 0.025 µM | IC50 (CDK1/CCNB1; [5]): 0.025 to 0.25 µM | IC50 (CDK4/CCND3; [3]): 0.025 to 0.25 µM | IC50 (CDK6/CCND1; [6]): 0.025 to 0.25 µM

SMILES: COc1cc(S(=N)(=O)C2CC2)ccc1Nc1cc2c(C#Cc3ccc4c(c3)NC(=O)C43CCC3)nccc2cn1 (single isomer, unassigned) [Example 296, 6′-((7-((4-(cyclopropanesulfonimidoyl)-2-methoxyphenyl)amino)-2,6-naphthyridin-1-yl)ethynyl)spiro[cyclobutane-1,3′-indolin]-2′-one]
IC50 (CDK2/CCNE1; [1]): < 0.025 µM | IC50 (CDK1/CCNB1; [2]): > 0.25 µM | IC50 (CDK4/CCND3; >250 nM marked x, read-out: CDK4/CCND IC50 >250 nM): > 0.25 µM | IC50 (CDK6/CCND1; [4]): > 0.25 µM

SMILES: Cc1cc2c(cc1C#Cc1nccc3cnc(Nc4ccc(S(=N)(=O)C(C)C)cc4)cc13)NC(=O)C2(C)C (single isomer, unassigned) [Example 315, 3,3,5-trimethyl-6-((7-((4-(propan-2-ylsulfonimidoyl)phenyl)amino)-2,6-naphthyridin-1-yl)ethynyl)indolin-2-one]
IC50 (CDK2/CCNE1; [1]): < 0.025 µM | IC50 (CDK1/CCNB1; [2]): > 0.25 µM | IC50 (CDK4/CCND3; [3]): 0.025 to 0.25 µM | IC50 (CDK6/CCND1; [4]): > 0.25 µM

SMILES: COCC1(COC)C(=O)Nc2cc(C#Cc3nccc4cnc(Nc5ccc(S(=N)(=O)C(C)C)cc5)cc34)ccc21 (single isomer, unassigned) [Example 321, 3,3-bis(methoxymethyl)-6-((7-((4-(propan-2-ylsulfonimidoyl)phenyl)amino)-2,6-naphthyridin-1-yl)ethynyl)indolin-2-one]
IC50 (CDK2/CCNE1; [1]): < 0.025 µM | IC50 (CDK1/CCNB1; [5]): 0.025 to 0.25 µM | IC50 (CDK4/CCND3; [3]): 0.025 to 0.25 µM | IC50 (CDK6/CCND1; [4]): > 0.25 µM

SMILES: CC(C)S(=N)(=O)c1ccc(Nc2cc3c(C#Cc4ccc5c(c4)NC(=O)C5(C)CO)nccc3cn2)cc1 (single isomer, unassigned) [Example 328, 3-(hydroxymethyl)-3-methyl-6-((7-((4-(propan-2-ylsulfonimidoyl)phenyl)amino)-2,6-naphthyridin-1-yl)ethynyl)indolin-2-one]
IC50 (CDK2/CCNE1; [1]): < 0.025 µM | IC50 (CDK1/CCNB1; [5]): 0.025 to 0.25 µM | IC50 (CDK4/CCND3; [3]): 0.025 to 0.25 µM | IC50 (CDK6/CCND1; [4]): > 0.25 µM

SMILES: CCS(=N)(=O)c1ccc(Nc2cc3c(C#Cc4ccc(=O)[nH]n4)nccc3cn2)cc1 (single isomer, unassigned) [Example 403, 6-((7-((4-(ethylsulfonimidoyl)phenyl)amino)-2,6-naphthyridin-1-yl)ethynyl)pyridazin-3(2H)-one]
IC50 (CDK2/CCNE1; [7]): < 0.025 µM | IC50 (CDK1/CCNB1; [13]): > 0.25 µM | IC50 (CDK4/CCND3; [11]): > 0.25 µM | IC50 (CDK6/CCND1; [12]): > 0.25 µM
